The record followed here is PubChem BioAssay (NCI).

The structures appear in SMILES notation.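 1) Cells in 96-well plates. 2) Compound, 48 h, 5 concentrations. 3) Linear interpolation between surrounding doses. 4) Unreached endpoint = highest concentration. GI50 = concentration required for 50% inhibition of growth. TGI is the concentration that stops growth completely.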

What all share (test): NCI-60 cell line screen, 48 h
The subject of test [1] is HT29 colon.
Test [2] has as its system SF-295 CNS.
Test [3] deals with HCT-15 colon.
Test [4] deals with KM12 colon.
Test [5] relates to HL-60(TB) leukemia.
In test [6] the test system is SF-268 CNS.
Test [7] concerns UACC-257 melanoma.
Test [8] concerns UO-31 renal.
Test [9] deals with SK-MEL-2 melanoma.
In test [10] the test system is U251 CNS.

For the molecule `CCOC(=O)C1CCC/C1=N\N=C(N)N` (centres undefined) (tested in a mixture with another compound), the TGI in [1], in test [2], in test [3], in test [4], in [5] and in test [6] was greater than 100 µM in each case. For the same molecule, the TGI in [7], in test [8], in test [9] and in [10] was greater than 100 µM in each case.

On to `COC(=O)c1c2c(c(C)[n+]([O-])c1C)C(=O)C=C(NCc1ccc(Cl)cc1)C2=O`, for which the GI50 in [1] was 0.271 µM; in [2], 0.362 µM; in test [3], 0.183 µM; in test [4], 0.127 µM; in test [5] it was 0.324 µM; in test [6] it was 0.747 µM. Moreover, the GI50 was 0.234 µM in test [7], 1.16 µM in test [8], 1.05 µM in test [9] and 0.598 µM in test [10]. Also, the TGI in [1] was greater than 26.6 µM; in test [2], 1.58 µM; in [3], 1.74 µM; in test [4] it was 2 µM; in test [5], 1.55 µM; in test [6] it was 2.96 µM. Moreover, the TGI in test [7] turned out to be 0.868 µM; in [8] it was 2.66 µM; in test [9], 2.73 µM; in test [10], 1.88 µM.

For `O=C(O)CC(Cc1ccc2c(c1)OCO2)C(=O)O` (centres undefined), the TGI in [1], in test [2], in test [3], in [4], in test [5] and in [6] was greater than 100 µM in each case. Moreover, the TGI in test [7], in [8], in test [9] and in test [10] was greater than 100 µM throughout.

Consider `COc1ncnc2c(NC3OC(CO)C(O)C3O)ncnc12` (centres undefined), for which the TGI was greater than 32 µM in test [1]; 22.6 µM in test [2]; greater than 100 µM in test [3]; greater than 65.1 µM in [4]; 0.418 µM in [5]; greater than 100 µM in [6]. Further, the TGI in [7] is greater than 100 µM; in test [8], greater than 21.9 µM; in test [9] it was greater than 100 µM; in test [10], greater than 100 µM.

As for `Cc1cc2c(C(C)C)c(O)c(O)c3coc(/c1=c1/c(C)cc4c(C(C)C)c(=O)c(=O)c5coc1c45)c32`, the TGI was 14.4 µM in test [1]; 16.2 µM in [2]; 15.6 µM in test [3]; 14.9 µM in test [4]; 17.8 µM in test [5]; 24.1 µM in [6]. Further, the TGI in test [7] is 31 µM; in test [8], 31.1 µM; in test [9] it was 17.9 µM; in test [10], 14.3 µM.

As to `CCN(CC)c1ccc(/C=N/NC(=O)c2ccc(Nc3ccnc(C(F)(F)F)c3)cc2)c(O)c1`, the GI50 in test [1] was 0.339 µM; in test [2], 0.122 µM; in test [3], 0.0666 µM; in test [4], 0.316 µM; in test [5] it was 0.258 µM; in test [6] it was 0.155 µM. Moreover, the GI50 is 0.412 µM in test [7], 0.117 µM in test [8], 0.718 µM in test [9] and 0.145 µM in [10]. Also, the TGI is 1.68 µM in test [1]; 0.927 µM in [2]; 2.55 µM in [3]; 4.1 µM in test [4]; 0.791 µM in test [5]; greater than 20.7 µM in test [6]. For the same molecule, the figures for the TGI in test [7], in test [8] and in test [10] were greater than 31 µM, 1.91 µM and greater than 37.6 µM, respectively.

With `Cc1ccc2sc3cc(=O)cc(C)c-3nc2c1`, the TGI in [1] is greater than 100 µM; in [2], greater than 100 µM; in test [3], greater than 100 µM; in test [4], greater than 100 µM; in [5] it was 66 µM; in test [6] it was greater than 100 µM. In addition, the TGI in test [7], in [8], in test [9] and in [10] was greater than 100 µM throughout.

As for `O=S(=O)(O)C(F)(F)C(F)(F)C(F)(F)C(F)(F)F`, the TGI in test [1], in test [2], in test [3], in test [4], in test [5] and in [6] was greater than 100 µM each time. The TGI in [7], in test [8], in [9] and in test [10] was greater than 100 µM throughout.
